Structures can show the parent of a compound that is named as a salt. Some results are limits rather than exact numbers.

Sequence of CYP2D6 (P10635 whole entry): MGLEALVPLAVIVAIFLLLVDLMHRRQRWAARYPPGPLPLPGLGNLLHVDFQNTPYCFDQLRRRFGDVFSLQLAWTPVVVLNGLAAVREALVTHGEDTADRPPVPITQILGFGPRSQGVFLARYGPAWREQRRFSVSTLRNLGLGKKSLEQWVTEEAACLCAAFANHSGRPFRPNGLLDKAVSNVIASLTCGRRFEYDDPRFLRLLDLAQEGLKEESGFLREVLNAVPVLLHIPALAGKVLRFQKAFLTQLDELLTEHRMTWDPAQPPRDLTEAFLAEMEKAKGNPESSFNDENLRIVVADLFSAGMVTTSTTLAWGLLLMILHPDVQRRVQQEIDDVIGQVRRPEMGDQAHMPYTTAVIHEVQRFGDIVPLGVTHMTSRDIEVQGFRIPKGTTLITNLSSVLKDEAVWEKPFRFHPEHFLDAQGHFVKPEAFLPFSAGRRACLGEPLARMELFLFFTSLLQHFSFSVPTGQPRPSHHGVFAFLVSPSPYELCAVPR

The first series concerns TTXs sodium channels (ND7/23 cells). The series can be described thus: TTXs-sodium channel influx assay (fluorescence, membrane potential kit). The class given is cell-based, rat. As to conditions: veratridine 100 μM. The method, then: ND7/23 rat dorsal root ganglion-derived cell line endogenously expresses a mixed population of TTXs sodium channels (such as Nav1.3, Nav1.2, Nav1.1, Nav1.6). These cells lack of TTXr sodium channels as shown by the absence of their respective transcripts. ND7/23 cells are grown in Dulbecco's Modified Eagle Medium (DMEM, Invitrogen, CA—USA) supplemented with 10% Foetal Bovine Serum (FBS, Invitrogen, CA—USA) and 1 mM sodium piruvate. The cells are seeded at 50,000 cells/well on 96 poly-L-lysine-coated plates and further incubated for 18-24 h before use.
The Membrane Potential Kit Assay (Molecular Devices, CA—USA), based on a negatively charged fluorescent dye able to monitor changes in membrane potential caused by the sodium influx due to the channel opening, is used for the assay.
Cells are incubated with the dye loading for 30 minutes at 25° C. Then, 100 nM of the toxin Anemonia sulcata (used as enhancer of the channel opener response) alone or in the presence of TTX (as reference standard) or test compound are added for further 15 minutes.
The fluorescence (excitation: 530 nm, emission: 565 nm wavelength) is measured before and after (40-45 s) the automated injection of the sodium channel opener veratridine (100 μM) using a Victor plate reader (Perkin Elmer, MA—USA).
The inhibition curves are calculated from 5 concentrations, each in triplicate, and the IC50 determined using a linear regression analysis.
The results, obtained with some compounds which are representative of the entire class of compounds of the invention are reported in Table 1.
One may read the IC50 as the concentration that gives 50% inhibition. `CCCCCOc1cccc(C(F)(F)CNCC(=O)N(C)C)c1` [Example 1-2, 2-[2,2-Difluoro-2-(3-pentyloxyphenyl)-ethylamino]-N,N-dimethyl-acetamide, hydrochloride] returned an IC50 of 1300 nM.

`CN1CCN(C(=O)CNCC(F)(F)c2cccc(OCCCC(F)(F)F)c2)CC1` [Example 1-28, 2-{2,2-Difluoro-2-[3-(4,4,4-trifluorobutoxy)-phenyl)-ethylamino}-1-(4-methylpiperazin-1-yl)-ethanone, hydrochloride] displayed an IC50 of 3200 nM.

Turning to `CCCCOc1cccc(C(F)(F)CNCC(=O)N2CCCCC2)c1` [Example 1-29, 2-[2,2-Difluoro-2-(3-butoxyphenyl)-ethylamino]-1-(piperidin-1-yl)-ethanone, hydrochloride], the IC50 is 1800 nM. The same measure, in the same setting: as for `O=C(CNCC(F)(F)c1cccc(OCCCC(F)(F)F)c1)N1CCCC1` [Example 1-18, 2-{2,2-Difluoro-2-[3-(4,4,4-trifluorobutoxy)-phenyl]-ethylamino}-1-(pyrrolidin-1-yl)-ethanone], the figure is 950 nM; as for `CCCCOc1cccc(C(F)(F)CNCC(=O)N(CCC)CCC)c1` [Example 1-3, 2-[2,2-Difluoro-2-(3-butoxyphenyl)-ethylamino]-N,N-dipropyl-acetamide, hydrochloride], 580 nM; as for `CCCCOc1cccc(C(F)(F)CN(CCOC)CC(=O)N(C)C)c1` [Example 3-3, 2-{[2,2-Difluoro-2-(3-butoxyphenyl)-ethyl]-(2-methoxyethyl)-amino}-N,N-dimethyl-acetamide, hydrochloride], 1400 nM.

`CCCCCCOc1cccc(C(F)(F)CNCC(=O)N(C)C)c1` [Example 1-6, 2-[2,2-Difluoro-2-(3-hexyloxyphenyl)-ethylamino]-N,N-dimethyl-acetamide, hydrochloride] yielded an IC50 of 140 nM. `CCCCOc1cccc(C(F)(F)CN(C)CC(=O)N(C)C)c1` [Example 3-1, 2-{[2,2-Difluoro-2-(3-butoxyphenyl)-ethyl]-methylamino}-N,N-dimethyl-acetamide, hydrochloride] came in with an IC50 of 2300 nM. Still for that read-out and setting: in the case of `CN(C)C(=O)CNCC(F)(F)c1cccc(OCc2ccccc2)c1` [Example 1-14, 2-[2,2-Difluoro-2-(3-benzyloxyphenyl)-ethylamino]-N,N-dimethyl-acetamide, hydrochloride] it was 1200 nM; in that of `CN(C)C(=O)CNCC(F)(F)c1cccc(OCCCC(F)(F)F)c1` [Example 1-7, 2-{2,2-Difluoro-2-[3-(4,4,4-trifluorobutoxy)-phenyl]-ethylamino}-N,N-dimethyl-acetamide, hydrochloride], 3600 nM; in that of `CCCCOc1cccc(C(F)(F)CNC(COC)C(=O)N(C)C)c1` (stereo not shown) [Example 2-2, 2-[2,2-Difluoro-2-(3-butoxyphenyl)-ethylamino]-3-methoxy-N,N-dimethyl-propanamide], 6200 nM. Take `CCCCOc1cccc(C(F)(F)CNCC(=O)N2CCC2)c1` [Example 1-42, 2-[2,2-Difluoro-2-(3-butoxyphenyl)-ethylamino)-1-(azetidin-1-yl)-ethanone, hydrochloride]: the midpoint of inhibition, the IC50, lay at 5000 nM. In turn, `CCCCOc1cccc(C(F)CNCC(=O)N(C)C)c1` (stereo not shown) [Example 4-1, 2-[2-Fluoro-2-(3-butoxyphenyl)-ethylamino]-N,N-dimethyl-acetamide, hydrochloride] showed a half-inhibitory concentration (IC50) of 1500 nM.

In turn, `CCCCOc1cccc(C(F)(F)CNCC(=O)N2CCCC2)c1` [Example 1-15, 2-[2,2-Difluoro-2-(3-butoxyphenyl)-ethylamino]-1-(pyrrolidin-1-yl)-ethanone, hydrochloride] had an IC50 of 1100 nM. On the same count and under the same terms, in the case of `CCCCOc1cccc(C(F)(F)CNC(C)C(=O)N(C)C)c1` (stereo not shown) [Example 2-1, 2-[2,2-Difluoro-2-(3-butoxyphenyl)-ethylamino]-N,N-dimethyl-propanamide, hydrochloride] it was 20000 nM; in that of `CCCCOc1cccc(C(F)(F)CNCC(=O)N2CCN(C)CC2)c1` [Example 1-26, 2-[2,2-Difluoro-2-(3-butoxyphenyl)-ethylamino]-1-(4-methylpiperazin-1-yl)-ethanone, hydrochloride], 23200 nM; in that of `CCCCOc1cccc(C(F)(F)CNCC(=O)N(C)C)c1` [Example 1-1, 2-[2,2-Difluoro-2-(3-butoxyphenyl)-ethylamino]-N,N-dimethyl-acetamide, hydrochloride], 1000 nM. `CCCCOc1cccc(C(F)(F)CNCC(=O)N(CC)CC)c1` [Example 1-32, 2-[2,2-Difluoro-2-(3-butoxyphenyl)-ethylamino]-N,N-diethyl-acetamide, hydrochloride] yielded an IC50 of 2800 nM.

A further series deals with CYP2D6 (Homo sapiens (Human), UniProt P10635). The series is described as follows: Inhibition of Cytochrome P4502D6 (CYP2D6) using Supersomes. Type of series: in vitro ADME. Particulars: AMMC substrate, read-out: IC50 (Fluorinated derivative). How it is done:
The inhibition of Cytochrome P4502D6 (CYP2D6) is assessed by performing in vitro inhibition studies using Supersomes, microsomes derived from baculovirus infected insect cells; the baculoviruses are engineered to express one or more drug metabolizing enzyme cDNAs. Supersomes catalyze the same enzymatic reactions as human liver microsome enzymes, but they contain much higher enzyme activity than other microsome sources (Crespi C. L. and Penman B. W., Advances Pharmacology, 43, 171-188 (1997); Crespi C. L. and Miller V. P., Analytical Biochemistry, 248, 188-190 (1997)).
Kits with Supersomes are Supplied by GENTEST (MA, USA).
Test compound is dissolved in DMSO 500× the highest final concentration desired in the IC50 assay. 30 ml of deionized water is pre-warmed to 37° C. and all kit components are placed on ice. For each well of column 1, 149.4 μL of NADPH-Cofactor Mix, (187.5 μl of Cofactors, 150 μl of G6PDH, 100 μl of Control Protein and 14.56 ml of 37° C. water) are added.
In each well from Column 2 to 12, 100 μl of Cofactor/DMSO mix (40 μL DMSO in 9.96 ml of NADPH-Cofactor Mix) are added. To each well of column 1, 0.6 μl of test compound or positive control are added. 50 μl from each well of column 1 are serially diluted to column 8. The extra 50 μl from column 8 are discarded. The plate is covered and pre-incubated at 37° C. for 10 minutes.
Preparation of enzyme/substrate mix: 7.92 ml of pre-warmed deionized water, 75 μl of enzyme, 3 μl of 10 mM AMMC and 2 ml of pre-warmed buffer are mixed.
After the pre-incubation time (10′), 100 μl of enzyme/substrate mix to each well from column 1 to 10 are added. The plate is incubated at 37° C. for 30 minutes. After this time, 75 μl of Stop Reagent to each well are added. For blank controls, 100 μl of enzyme/substrate mix are added to columns 11 and 12.
Plates are read at the Victor plate reader (Perkin Elmer, MA—USA) at 390 nm excitation and 460 nm emission wavelengths.
In the case of `CCCCCOc1cccc(C(F)(F)CNCC(=O)N(C)C)c1` [Example 1-2, 2-[2,2-Difluoro-2-(3-pentyloxyphenyl)-ethylamino]-N,N-dimethyl-acetamide, hydrochloride], the half-maximal inhibitory concentration (IC50) is greater than 40000 nM.

For `CCCCOc1cccc(C(F)(F)CNCC(=O)N(CCC)CCC)c1` [Example 1-3, 2-[2,2-Difluoro-2-(3-butoxyphenyl)-ethylamino]-N,N-dipropyl-acetamide, hydrochloride], the IC50 is 23900 nM. On the same count and under the same terms, in the case of `CCCCOc1cccc(C(F)(F)CNC(C)C(=O)N(C)C)c1` (stereo not shown) [Example 2-1, 2-[2,2-Difluoro-2-(3-butoxyphenyl)-ethylamino]-N,N-dimethyl-propanamide, hydrochloride] it was greater than 40000 nM.

Still in this series, the particulars now being: AMMC substrate, reference standards of the closest prior art, read-out: IC50 (Corresponding de-fluorinated derivative).
Regarding `CCCCCCOc1cccc(CCNCC(=O)N(C)C)c1` [2-[2-(3-Hexyloxyphenyl)-ethylamino]-N,N-dimethyl-acetamide, hydrochloride], the IC50 came out at 900 nM. As to `CCCCOc1cccc(CCNCC(=O)N(CC)CC)c1` [2-[2-(3-Butoxyphenyl)-ethylamino]-N,N-diethyl-acetamide, hydrochloride], the IC50 amounted to 2500 nM. Same read-out and setting: in the case of `CCCCOc1cccc(CCNC(C)C(=O)N(C)C)c1` (stereo not shown) [2-[2-(3-Butoxyphenyl)-ethylamino]-N,N-dimethyl-propanamide, hydrochloride] it was 5800 nM.

As for `O=C(CNCCc1cccc(OCCCC(F)(F)F)c1)N1CCOCC1` [2-{2-[3-(4,4,4-trifluorobutoxy)phenyl]-ethylamino}-1-(morpholin-4-yl)-ethanone, hydrochloride], the half-inhibitory concentration (IC50) worked out at 1800 nM. Consider `CN(C)C(=O)CNCCc1cccc(OCc2ccccc2)c1` [2-[2-(3-Benzyloxyphenyl)-ethylamino]-N,N-dimethyl-acetamide, hydrochloride], for which the IC50 is 10600 nM. Consider `CCCCOc1cccc(CCN(CCCOC)CC(=O)N(C)C)c1` [2-{[2-(3-Butoxyphenyl)-ethyl]-(3-methoxypropyl)-amino}-N,N-dimethyl-acetamide, hydrochloride], for which the IC50 was 7300 nM. Turning to `O=C(CNCCc1cccc(OCCCC(F)(F)F)c1)N1CCCC1` [2-{2-[3-(4,4,4-trifluorobutoxy)-phenyl]-ethylamino}-1-(pyrrolidin-1-yl)-ethanone, hydrochloride], the IC50 came out at 5000 nM. The same measure, in the same setting: as for `CCCCOc1cccc(CCNCC(=O)N(CCC)CCC)c1` [2-[2-(3-Butoxyphenyl)-ethylamino]-N,N-dipropyl-acetamide, hydrochloride], the figure is 700 nM; as for `CCCCOc1cccc(CCN(CCOC)CC(=O)N(C)C)c1` [2-{[2-(3-Butoxyphenyl)-ethyl]-(2-methoxyethyl)-amino}-N,N-dimethyl-acetamide, hydrochloride], 3400 nM; as for `CCCCOc1cccc(CCNCC(=O)N2CCCCC2)c1` [2-[2-(3-Butoxyphenyl)-ethylamino]-1-(piperidin-1-yl)-ethanone, hydrochloride], 1100 nM.

As to `CCCCCOc1cccc(CCNCC(=O)N(C)C)c1` [2-[2-(3-Pentyloxyphenyl)-ethylamino]-N,N-dimethyl-acetamide, hydrochloride], the IC50 is 3500 nM. Same read-out and setting: in the case of `CCCCOc1cccc(CCNCC(=O)N(C)C)c1` [2-[2-(3-Butoxyphenyl)-ethylamino]-N,N-dimethyl-acetamide, hydrochloride] it was 5800 nM. Still for that read-out and setting: as for `CCCCOc1cccc(CCNCC(=O)N2CCCC2)c1` [2-[2-(3-Butoxyphenyl)-ethylamino]-1-(pyrrolidin-1-yl)-ethanone, hydrochloride], the figure is 3000 nM.

These data come from patent publication US9447029B2, “Fluorinated arylalkylaminocarboxamide derivatives” (NEWRON PHARMACEUTICALS S.P.A., priority 2011, dated 2016).
